Results on 34 molecules are retold here after ChEMBL document CHEMBL4834445, “Discovery of a new class of JMJD6 inhibitors and structure-activity relationship study” (Bioorg Med Chem Lett, 2021).

Activity calls are given as the source filed them. The calls are words filed in the database; no cut-off is given here.

Test [1] concerns the target T1, Bifunctional arginine demethylase and lysyl-hydroxylase JMJD6 (Homo sapiens, UniProt Q6NYC1). Description: Inhibition of JMJD6 (unknown origin) by Succinate-Glo assay.
The target in test [2] is T2, Lysine-specific demethylase 4D (Homo sapiens, UniProt Q6B0I6).
T2 sequence (Q6B0I6 whole entry): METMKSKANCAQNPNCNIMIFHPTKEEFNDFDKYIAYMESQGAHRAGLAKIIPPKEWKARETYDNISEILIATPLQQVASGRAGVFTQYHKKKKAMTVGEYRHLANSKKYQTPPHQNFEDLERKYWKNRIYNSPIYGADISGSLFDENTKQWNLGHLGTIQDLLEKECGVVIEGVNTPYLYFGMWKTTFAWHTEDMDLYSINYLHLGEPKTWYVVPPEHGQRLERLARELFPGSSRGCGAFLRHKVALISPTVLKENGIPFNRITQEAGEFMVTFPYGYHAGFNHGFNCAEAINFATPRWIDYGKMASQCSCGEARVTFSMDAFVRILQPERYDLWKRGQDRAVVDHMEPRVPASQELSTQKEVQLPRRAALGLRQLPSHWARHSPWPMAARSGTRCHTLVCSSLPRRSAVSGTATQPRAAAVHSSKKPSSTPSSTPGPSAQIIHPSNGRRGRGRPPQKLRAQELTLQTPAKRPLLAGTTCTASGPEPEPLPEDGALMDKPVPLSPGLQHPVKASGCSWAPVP
Description: Inhibition of KDM4D (unknown origin) by Succinate-Glo assay.

Test [3] deals with T3, Lysine-specific demethylase 4D (Homo sapiens) (UniProt Q6B0I6).
T3 sequence (whole entry): T2 sequence (Q6B0I6 whole entry)
Description: Binding affinity to KDM4D (unknown origin) by differential scanning fluorimetry. A general note: In DSF a fluorescence change marks the thermal transition of the protein.

The target in test [4] is T4, Lysine-specific demethylase 5A (Homo sapiens, UniProt P29375). Description: Binding affinity to KDM5A (unknown origin) by differential scanning fluorimetry.
The target in test [5] is T5, Bifunctional peptidase and (3S)-lysyl hydroxylase JMJD7 (Homo sapiens, UniProt P0C870). Description: Inhibition of JMJD7 (unknown origin) by Succinate-Glo assay.
Test [6] addresses T5, Bifunctional peptidase and (3S)-lysyl hydroxylase JMJD7. Description: Binding affinity to JMJD7 (unknown origin) by differential scanning fluorimetry.
Test [7] concerns the target T6, RNA demethylase ALKBH5 (Homo sapiens, UniProt Q6P6C2). Description: Inhibition of ALKBH5 (unknown origin) by Succinate-Glo assay.
Target sequence in this assay (Q6P6C2 whole entry): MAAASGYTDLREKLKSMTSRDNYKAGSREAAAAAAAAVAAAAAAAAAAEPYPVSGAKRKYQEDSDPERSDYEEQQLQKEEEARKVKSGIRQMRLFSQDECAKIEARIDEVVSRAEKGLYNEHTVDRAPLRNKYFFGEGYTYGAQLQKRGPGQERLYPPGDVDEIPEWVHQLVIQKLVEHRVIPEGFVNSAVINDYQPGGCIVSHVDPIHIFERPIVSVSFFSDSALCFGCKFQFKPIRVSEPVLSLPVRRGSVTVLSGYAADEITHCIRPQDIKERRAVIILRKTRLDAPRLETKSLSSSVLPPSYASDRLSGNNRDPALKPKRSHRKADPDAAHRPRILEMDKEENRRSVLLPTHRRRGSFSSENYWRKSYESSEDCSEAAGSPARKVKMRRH
Test [8] addresses T6, RNA demethylase ALKBH5. The experiment in a line: Binding affinity to ALKBH5 (unknown origin) by differential scanning fluorimetry.
Target sequence in this assay (Q6P6C2 2-394 limits assumed): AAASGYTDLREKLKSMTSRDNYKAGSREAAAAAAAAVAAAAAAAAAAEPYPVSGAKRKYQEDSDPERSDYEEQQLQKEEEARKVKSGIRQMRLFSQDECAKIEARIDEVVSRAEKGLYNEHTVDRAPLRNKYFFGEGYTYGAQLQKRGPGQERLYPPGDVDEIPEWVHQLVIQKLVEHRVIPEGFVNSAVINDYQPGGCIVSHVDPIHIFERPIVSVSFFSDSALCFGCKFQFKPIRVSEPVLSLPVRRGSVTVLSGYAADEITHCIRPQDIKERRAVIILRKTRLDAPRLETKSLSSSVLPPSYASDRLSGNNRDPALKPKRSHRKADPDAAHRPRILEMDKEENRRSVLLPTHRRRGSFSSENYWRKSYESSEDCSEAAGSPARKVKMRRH
Test [9] deals with T7, Lysine-specific demethylase 3B (Homo sapiens, UniProt Q7LBC6). The experiment in a line: Inhibition of KDM3B (unknown origin) by Succinate-Glo assay.
Test [10] addresses T1, Bifunctional arginine demethylase and lysyl-hydroxylase JMJD6. The experiment in a line: Binding affinity to JMJD6 (unknown origin) assessed as thermal stability of the protein by measuring change in melting temperature by differential scanning fluorimetry.
Test [11] shares this target. Description: Binding affinity to JMJD6 in human HeLa cells assessed as inhibition of temperature-dependent protein degradation by CETSA. Type of test: cell-based.
The target of test [12] is T4, Lysine-specific demethylase 5A. The experiment in a line: Inhibition of KDM5A (unknown origin) by AlphalLISA assay.
The target of test [13] is T7, Lysine-specific demethylase 3B. Description: Binding affinity to KDM3B (unknown origin) by differential scanning fluorimetry.
Test [14] concerns the target T1, Bifunctional arginine demethylase and lysyl-hydroxylase JMJD6. The experiment in a line: Inhibition of JMJD6 (unknown origin) at 100 uM by Succinate-Glo assay.
Test [15] shares this target. Description: Inhibition of JMJD6 (unknown origin).

T4 sequence (P29375 whole entry): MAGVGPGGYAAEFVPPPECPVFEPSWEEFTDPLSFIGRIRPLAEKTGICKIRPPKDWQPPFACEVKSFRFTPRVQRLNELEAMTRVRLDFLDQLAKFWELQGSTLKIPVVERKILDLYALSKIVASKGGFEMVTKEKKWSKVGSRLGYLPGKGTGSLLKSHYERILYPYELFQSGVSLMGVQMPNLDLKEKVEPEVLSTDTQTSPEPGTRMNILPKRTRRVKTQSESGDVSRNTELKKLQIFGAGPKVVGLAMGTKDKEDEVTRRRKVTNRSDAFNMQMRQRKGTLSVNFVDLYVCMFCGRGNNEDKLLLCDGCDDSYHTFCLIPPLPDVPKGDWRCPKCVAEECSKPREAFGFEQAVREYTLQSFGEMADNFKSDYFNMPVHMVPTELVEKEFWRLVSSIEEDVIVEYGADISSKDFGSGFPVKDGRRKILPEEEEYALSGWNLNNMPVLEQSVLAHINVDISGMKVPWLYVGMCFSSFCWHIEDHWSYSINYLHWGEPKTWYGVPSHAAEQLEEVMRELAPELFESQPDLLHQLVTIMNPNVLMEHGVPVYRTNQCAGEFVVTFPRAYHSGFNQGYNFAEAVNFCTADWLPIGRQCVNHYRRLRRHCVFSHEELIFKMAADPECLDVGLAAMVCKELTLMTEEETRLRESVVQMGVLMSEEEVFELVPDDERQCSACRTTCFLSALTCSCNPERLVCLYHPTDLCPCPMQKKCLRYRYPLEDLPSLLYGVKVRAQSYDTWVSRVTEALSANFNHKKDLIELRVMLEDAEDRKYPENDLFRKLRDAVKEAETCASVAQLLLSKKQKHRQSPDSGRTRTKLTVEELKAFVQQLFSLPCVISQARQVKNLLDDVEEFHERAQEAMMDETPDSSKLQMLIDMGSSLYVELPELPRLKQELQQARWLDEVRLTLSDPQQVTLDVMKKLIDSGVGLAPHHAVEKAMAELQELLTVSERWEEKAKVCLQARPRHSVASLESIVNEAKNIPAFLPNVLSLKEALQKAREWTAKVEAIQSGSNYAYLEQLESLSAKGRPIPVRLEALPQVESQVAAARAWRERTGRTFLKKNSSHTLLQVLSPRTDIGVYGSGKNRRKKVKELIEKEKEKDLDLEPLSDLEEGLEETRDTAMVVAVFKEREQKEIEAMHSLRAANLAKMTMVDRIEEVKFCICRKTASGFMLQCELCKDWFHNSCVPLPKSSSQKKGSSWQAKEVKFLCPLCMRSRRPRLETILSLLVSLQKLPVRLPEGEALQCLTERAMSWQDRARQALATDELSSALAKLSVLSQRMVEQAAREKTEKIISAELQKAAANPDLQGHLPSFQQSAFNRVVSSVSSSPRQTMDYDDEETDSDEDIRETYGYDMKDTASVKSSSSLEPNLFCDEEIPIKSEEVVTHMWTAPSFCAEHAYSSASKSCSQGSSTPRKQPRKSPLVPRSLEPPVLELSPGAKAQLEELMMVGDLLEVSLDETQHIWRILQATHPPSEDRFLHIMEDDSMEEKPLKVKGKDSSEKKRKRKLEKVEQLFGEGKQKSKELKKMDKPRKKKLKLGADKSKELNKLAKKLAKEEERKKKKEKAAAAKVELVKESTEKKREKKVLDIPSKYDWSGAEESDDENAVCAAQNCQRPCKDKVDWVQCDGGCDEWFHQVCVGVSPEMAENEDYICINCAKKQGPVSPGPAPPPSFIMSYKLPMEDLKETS
T5 sequence (P0C870 whole entry): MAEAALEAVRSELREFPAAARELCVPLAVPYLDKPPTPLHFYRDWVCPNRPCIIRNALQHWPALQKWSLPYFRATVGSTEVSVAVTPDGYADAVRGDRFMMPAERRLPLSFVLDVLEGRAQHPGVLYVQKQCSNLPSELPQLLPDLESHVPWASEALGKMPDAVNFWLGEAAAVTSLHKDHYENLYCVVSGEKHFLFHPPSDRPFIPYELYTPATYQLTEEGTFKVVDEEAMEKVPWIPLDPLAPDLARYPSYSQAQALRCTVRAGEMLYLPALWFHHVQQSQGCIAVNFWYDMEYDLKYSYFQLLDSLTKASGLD
T7 sequence (Q7LBC6 whole entry): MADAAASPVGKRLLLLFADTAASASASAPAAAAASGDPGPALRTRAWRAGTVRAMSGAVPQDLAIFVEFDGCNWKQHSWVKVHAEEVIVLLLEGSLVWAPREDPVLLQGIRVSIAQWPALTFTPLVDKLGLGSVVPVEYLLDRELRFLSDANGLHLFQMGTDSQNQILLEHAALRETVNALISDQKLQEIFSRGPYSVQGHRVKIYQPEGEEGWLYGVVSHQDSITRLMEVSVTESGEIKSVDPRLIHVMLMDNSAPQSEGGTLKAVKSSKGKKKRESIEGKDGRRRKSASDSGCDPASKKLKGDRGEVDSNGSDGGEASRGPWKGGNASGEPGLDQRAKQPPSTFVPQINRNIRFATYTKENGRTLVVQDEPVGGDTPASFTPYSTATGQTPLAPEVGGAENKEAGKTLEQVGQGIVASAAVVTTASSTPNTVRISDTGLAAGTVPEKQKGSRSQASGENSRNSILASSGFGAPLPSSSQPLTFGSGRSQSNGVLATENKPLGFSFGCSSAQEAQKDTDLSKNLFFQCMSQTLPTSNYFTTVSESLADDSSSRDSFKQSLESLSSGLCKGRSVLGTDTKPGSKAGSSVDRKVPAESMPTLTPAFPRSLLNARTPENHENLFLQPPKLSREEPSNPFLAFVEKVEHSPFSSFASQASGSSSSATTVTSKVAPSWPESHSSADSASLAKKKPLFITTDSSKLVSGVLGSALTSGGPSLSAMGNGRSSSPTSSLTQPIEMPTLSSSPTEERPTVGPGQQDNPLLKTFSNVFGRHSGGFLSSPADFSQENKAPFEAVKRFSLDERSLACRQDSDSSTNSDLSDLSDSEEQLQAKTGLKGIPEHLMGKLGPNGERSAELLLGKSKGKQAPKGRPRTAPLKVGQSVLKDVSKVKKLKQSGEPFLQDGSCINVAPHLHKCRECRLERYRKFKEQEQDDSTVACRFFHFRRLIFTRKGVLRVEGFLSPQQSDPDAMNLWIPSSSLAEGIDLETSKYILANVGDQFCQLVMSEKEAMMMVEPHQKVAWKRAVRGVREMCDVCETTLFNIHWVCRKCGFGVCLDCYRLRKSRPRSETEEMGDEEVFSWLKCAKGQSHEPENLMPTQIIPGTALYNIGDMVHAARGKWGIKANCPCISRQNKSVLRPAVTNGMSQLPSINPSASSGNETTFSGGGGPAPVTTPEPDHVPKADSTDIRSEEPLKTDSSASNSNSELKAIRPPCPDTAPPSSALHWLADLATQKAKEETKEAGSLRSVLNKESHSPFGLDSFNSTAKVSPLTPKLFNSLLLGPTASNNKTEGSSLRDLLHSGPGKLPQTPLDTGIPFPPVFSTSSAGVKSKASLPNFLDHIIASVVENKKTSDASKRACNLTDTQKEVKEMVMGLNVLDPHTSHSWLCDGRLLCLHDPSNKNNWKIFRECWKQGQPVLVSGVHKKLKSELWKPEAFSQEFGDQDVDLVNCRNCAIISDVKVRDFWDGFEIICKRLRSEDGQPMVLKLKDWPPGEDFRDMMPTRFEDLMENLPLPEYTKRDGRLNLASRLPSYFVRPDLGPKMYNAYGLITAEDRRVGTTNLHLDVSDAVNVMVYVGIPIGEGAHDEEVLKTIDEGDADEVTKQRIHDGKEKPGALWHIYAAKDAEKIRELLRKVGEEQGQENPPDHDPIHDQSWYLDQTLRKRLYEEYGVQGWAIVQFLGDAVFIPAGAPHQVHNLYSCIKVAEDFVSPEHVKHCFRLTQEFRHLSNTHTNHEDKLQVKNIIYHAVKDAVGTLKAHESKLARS

The IC50 is the concentration that gives 50% inhibition. A lower IC50 goes with higher potency. Take `CC(C)OC(=O)c1ccnc(-c2ccn(C)n2)c1`: the IC50 in test [1] was 1.94 µM.

`CCCOC(=O)c1ccnc(-c2ccn(C)n2)c1` had an IC50 in test [1] of 1.34 µM.

For the molecule `CCOC(=O)c1ccnc(-c2ccnn2C)c1`, the IC50 in test [1] was more than 100 µM.

Take `CCOC(=O)c1ccnc(-c2nn(C)cc2-c2ccc(OC)nc2)c1`: inhibition in test [1] was half-maximal at 24.9 µM (IC50).

The molecule `CCOC(=O)c1cccc(-c2ccn(C)n2)c1` gave an IC50 in test [1] of more than 100 µM.

For the molecule `CCOC(=O)c1ccnc(-c2nn(C)cc2-c2ccccc2)c1`, the IC50 in test [1] came to 15.2 µM.

Consider `CCOC(=O)c1ccnc(-c2nn(C)cc2-c2cccc(N3CCOCC3)c2)c1`, for which the IC50 in [1] is 20.4 µM.

Regarding `Cn1ccc(-c2cc(-c3cnn[nH]3)ccn2)n1`, half-maximal inhibition in test [1] (IC50) required 12.9 µM.

For the molecule `CCOC(=O)c1ccnc(-c2nn(C)cc2-c2cc3ccccc3c3ccccc23)c1`, the half-inhibitory concentration (IC50) in test [1] is more than 100 µM.

In test [1], `CCOC(=O)c1ccc(-c2ccn(C)n2)nc1` showed an IC50 of more than 100 µM.

In the case of `CC(C)COC(=O)c1ccnc(-c2ccn(C)n2)c1`, in [1], half-maximal inhibition (IC50) was put at 11.8 µM.

For `Cn1ccc(-c2cc(C(=O)OC3CCCC3)ccn2)n1`, in test [1], the midpoint of inhibition, the IC50, lay at 43.5 µM.

Turning to `Cn1ccc(-c2cc(C(=O)O)ccn2)n1`, the midpoint of inhibition in [1], the IC50, lay at 1.71 µM.

`Cn1ccc(-c2cc(C(=O)OCC3CCC3)ccn2)n1` displayed an IC50 in test [1] of 2.53 µM.

As to `CCOC(=O)c1ccnc(-c2nn(C)cc2-c2cc(OC)cc(OC)c2)c1`, the IC50 in test [1] was more than 100 µM.

Regarding `Cn1ccc(-c2cc(C(=O)OCCF)ccn2)n1`, in [1], the IC50 was 1.45 µM.

Turning to `CCOC(=O)c1ccnc(-c2ccn(C)n2)c1`, the midpoint of inhibition in test [1], the IC50, lay at 0.914 µM.

In the case of `CCOC(=O)c1ccnc(-c2nn(C)cc2-c2ccc3occc3c2)c1`, the IC50 in test [1] is more than 100 µM.

In [1], `CCOC(=O)c1ccnc(-c2ccn(C(C)C)n2)c1` returned a concentration for half-maximal inhibition (IC50) of more than 100 µM.

For the molecule `CCOC(=O)c1ccnc(-c2ccn(CC)n2)c1`, the 50% inhibitory concentration (IC50) in [1] is 2.43 µM.

One may read the ΔTm as the change in melting temperature against a reference sample. In the case of `Cn1ccc(-c2cc(C(=O)OCC(F)(F)F)ccn2)n1`, the IC50 in test [1] was 0.681 µM; in test [2], more than 100 µM; in [5], more than 100 µM; against RNA demethylase ALKBH5 [7], more than 100 µM; in [9], more than 100 µM; in test [12] it was more than 100 µM. Further, the result (in [3]; in [4]; in test [6]; on RNA demethylase ALKBH5 [8]; in test [13]) was inactive. For the same molecule, the ΔTm in test [10] stood at 1.94 °C. The result in test [11] was Active.

Usually inhibition stands for the percentage by which the read-out fell short of the control. The molecule `CCOC(=O)c1ccnc(-c2cc[nH]n2)c1` had an IC50 in test [1] of 19.9 µM. For the same molecule, the figures for the inhibition entry in [1] and in [14] were “Dose-Dependent Effect” and 76%, respectively.

Molecule `Cn1ccc(-c2cc(C(=O)OCC3CC3)ccn2)n1` had a concentration for half-maximal inhibition (IC50) in [1] of 3.8 µM.

`CCNC(=O)c1ccnc(-c2ccn(C)n2)c1`: in test [1], the half-maximal inhibitory concentration (IC50) was more than 100 µM.

In test [1], `CCOC(=O)c1ccnc(-c2nn(C)cc2-c2cccc(C)c2)c1` registered an IC50 of 22.9 µM.

The molecule `Cc1cc(O)nc(NN=Cc2ccccc2O)n1` had an IC50 in test [15] of 0.78 µM.

As to `CCOC(=O)c1cc(-c2ccn(C)n2)ncc1C(F)(F)F`, the IC50 in test [1] was more than 100 µM.

In turn, `Cn1ccc(-c2cc(C(N)=O)ccn2)n1` returned an IC50 in test [1] of more than 100 µM.

As to `CCOC(=O)c1cccnc1-c1ccn(C)n1`, the IC50 in test [1] was more than 100 µM.

Regarding `COC(=O)c1ccnc(-c2ccn(C)n2)c1`, in test [1], the IC50 stood at 1.86 µM.

On to `CCOC(=O)c1cc(C)nc(-c2ccn(C)n2)c1`, for which the IC50 in test [1] is more than 100 µM.

The molecule `CCOC(=O)c1cc(-c2ccn(C)n2)ncc1F` displayed an IC50 in [1] of 23.1 µM.

`Cn1ccc(-c2cc(C(=O)OCc3ccccc3)ccn2)n1` had an IC50 in test [1] of 5.69 µM.

Regarding `Cn1ccc(-c2cc(C(=O)OCC(F)F)ccn2)n1`, the IC50 in test [1] turned out to be 1.12 µM.
